Experiment [1] in a line: Inhibition of yeast alpha-glucosidase using 4-nitrophenyl-alpha-D-glucopyranoside as substrate preincubated for 15 mins followed by substrate addition measured after 20 mins. The arrangement: species or system Saccharomyces cerevisiae.
For experiment [2], the target named is T1, Pancreatic alpha-amylase (Sus scrofa, UniProt P00690).
T1 sequence (P00690 whole entry): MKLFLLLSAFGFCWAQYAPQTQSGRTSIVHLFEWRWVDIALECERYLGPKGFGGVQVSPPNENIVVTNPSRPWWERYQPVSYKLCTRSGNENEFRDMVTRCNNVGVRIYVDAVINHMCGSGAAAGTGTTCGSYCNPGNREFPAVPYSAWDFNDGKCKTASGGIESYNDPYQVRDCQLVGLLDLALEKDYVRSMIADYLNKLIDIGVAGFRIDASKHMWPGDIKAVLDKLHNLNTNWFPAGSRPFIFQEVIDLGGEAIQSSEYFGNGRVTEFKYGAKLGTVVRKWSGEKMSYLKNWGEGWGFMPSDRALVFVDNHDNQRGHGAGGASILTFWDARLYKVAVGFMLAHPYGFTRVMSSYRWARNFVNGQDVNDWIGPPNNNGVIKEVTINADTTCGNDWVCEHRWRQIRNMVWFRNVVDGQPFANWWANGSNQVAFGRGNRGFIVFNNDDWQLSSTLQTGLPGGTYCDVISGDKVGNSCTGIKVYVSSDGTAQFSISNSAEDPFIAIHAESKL
The experiment in a line: Inhibition of porcine pancreatic alpha-amylase using starch as substrate preincubated for 15 mins followed by substrate addition measured after 10 mins by dinitrosalicylic acid reagent based assay.

SMILES strings stand for the structures.

On to `C[C@H]1[C@H](C)CC[C@]2(C(=O)O[C@@H]3O[C@H](CO[C@@H]4O[C@H](CO)[C@@H](O[C@@H]5O[C@@H](C)[C@H](O)[C@@H](O)[C@H]5O)[C@H](O)[C@H]4O)[C@@H](O)[C@H](O)[C@H]3O)CC[C@]3(C)C(=CC[C@@H]4[C@@]5(C)C[C@@H](O)[C@H](O)[C@@](C)(CO)[C@@H]5CC[C@]43C)[C@H]12`, for which the 50% inhibitory concentration (IC50) in experiment [1] and in experiment [2] was > 200 µM in each case.
Molecule `C[C@H]1O[C@H](O[C@H]2[C@H](O)[C@@H](O)[C@@H](O[C@H]3[C@H](O)[C@@H](O)C(O)O[C@@H]3CO)O[C@@H]2CO)[C@H](O)[C@@H](O)[C@@H]1N[C@H]1C=C(CO)[C@@H](O)[C@H](O)[C@H]1O` (some centres not stated) [ACARBOSE] showed a half-inhibitory concentration (IC50) in experiment [1] of 2480 µM.
As for `C[C@H]1[C@H](C)CC[C@]2(C(=O)O)CC[C@]3(C)C(=CC[C@@H]4[C@@]5(C)C[C@@H](O)[C@H](O)[C@@](C)(CO)[C@@H]5CC[C@]43C)[C@H]12` [ASIATIC ACID], the values for the half-maximal inhibitory concentration (IC50) in experiment [1] and in experiment [2] were 100 µM and > 200 µM, respectively.
The like results for `C=C(C)[C@@H]1CC[C@]2(C(=O)O)CC[C@]3(C)[C@H](CC[C@@H]4[C@@]5(C)CC[C@H](O)C(C)(C)[C@@H]5CC[C@]43C)[C@@H]12` [BETULINIC ACID] were, in that order, 14.9 µM and > 200 µM.
In the same order, the values of `C=C(C)[C@@H]1CC[C@]2(CO)CC[C@]3(C)[C@H](CC[C@@H]4[C@@]5(C)CC[C@H](O)C(C)(C)[C@@H]5CC[C@]43C)[C@@H]12` [BETULIN] are 52.5 µM and > 200 µM.
In the same order, the values of `C[C@H]1[C@H](C)CC[C@]2(C(=O)O)CC[C@]3(C)C(=CC[C@@H]4[C@@]5(C)C[C@@H](O)[C@H](O)C(C)(C)[C@@H]5CC[C@]43C)[C@H]12` [COROSOLIC ACID] are 17.2 µM and 31.2 µM.
For the molecule `CC1(C)[C@@H](O)CC[C@]2(C)[C@H]3C(=O)C=C4[C@@H]5C[C@@](C)(C(=O)O)CC[C@]5(C)CC[C@@]4(C)[C@]3(C)CC[C@@H]12` [ENOXOLONE], the IC50 in experiment [1] and in experiment [2] was > 200 µM throughout.
As to `CC1(C)[C@@H](O[C@H]2O[C@H](C(=O)O)[C@@H](O)[C@H](O)[C@H]2O[C@@H]2O[C@H](C(=O)O)[C@@H](O)[C@H](O)[C@H]2O)CC[C@]2(C)[C@H]3C(=O)C=C4[C@@H]5C[C@@](C)(C(=O)O)CC[C@]5(C)CC[C@@]4(C)[C@]3(C)CC[C@@H]12` [GLYCYRRHIZIN], the half-maximal inhibitory concentration (IC50) in experiment [1] and in experiment [2] was > 200 µM each time.
In experiment [1], `CC1(C)CC[C@]2(C(=O)O)CC[C@]3(C)C(=CC[C@@H]4[C@@]5(C)CC[C@H](O)C(C)(C)[C@@H]5CC[C@]43C)[C@@H]2C1` [OLEANOLIC_ACID] displayed a concentration for half-maximal inhibition (IC50) of 35.6 µM.
The same measure, in the same setting: the result for `C[C@H]1[C@H](C)CC[C@]2(C(=O)O)CC[C@]3(C)C(=CC[C@@H]4[C@@]5(C)CC[C@H](O)C(C)(C)[C@@H]5CC[C@]43C)[C@H]12` [URSOLIC ACID] reads 12.1 µM.

The values are drawn from ChEMBL document CHEMBL4043266, “Pentacyclic triterpenes as α-glucosidase and α-amylase inhibitors: Structure-activity relationships and the synergism with acarbose” (Bioorg Med Chem Lett, 2017).
